IC50 data for 41 molecules are collected here from US10981917B2, “Heterocyclic compound, its preparation method, and pharmaceutical composition comprising the same” (Daewoong Pharmaceutical Co., Ltd., priority 2017, dated 2021).

The target of this test is PRS (prolyl-tRNA synthetase) protein, PRS portion of EPRS (Homo sapiens (Human), UniProt P07814). As to the kind of experiment: PRS enzyme activity inhibition experiment ([3H]proline, liquid scintillation). The format is biochemical. The conditions noted are these: purified PRS protein, 37° C. for 5 to 10 minutes. The method in brief: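 Values are % inhibition or IC50 ranges (A ≤100 nM, B 100–500 nM, C ≥500 nM) from [3H]proline incorporation measured by liquid scintillation. PRS portion of human EPRS, reacted 5–10 min at 37 °C in pH 7.4 phosphate buffer containing 5 mM ATP and tRNA, compound at 1 μM.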
Sequence of PRS (prolyl-tRNA synthetase) protein, PRS portion of EPRS (P07814 1007-1512): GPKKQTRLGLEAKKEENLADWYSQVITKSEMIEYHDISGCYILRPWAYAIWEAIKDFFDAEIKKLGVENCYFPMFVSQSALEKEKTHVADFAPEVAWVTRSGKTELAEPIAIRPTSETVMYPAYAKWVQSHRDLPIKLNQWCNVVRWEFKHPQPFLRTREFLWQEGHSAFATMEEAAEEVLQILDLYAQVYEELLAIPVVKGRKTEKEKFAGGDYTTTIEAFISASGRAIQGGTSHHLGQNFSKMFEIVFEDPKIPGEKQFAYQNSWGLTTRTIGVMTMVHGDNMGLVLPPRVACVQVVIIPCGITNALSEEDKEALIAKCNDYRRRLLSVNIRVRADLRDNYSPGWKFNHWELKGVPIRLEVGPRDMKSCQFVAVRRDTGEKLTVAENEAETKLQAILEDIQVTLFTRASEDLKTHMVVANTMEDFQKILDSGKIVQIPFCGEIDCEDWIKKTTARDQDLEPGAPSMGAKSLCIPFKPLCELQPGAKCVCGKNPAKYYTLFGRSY
In general, IC50 refers to the concentration that inhibits the measured activity by half. Molecule `O[C@H]1CCCN[C@@H]1CCCn1cnc2nc(Cl)ccc21` [Example 117, (2R,3S)-2-(3-(5-chloro-1H-imidazo[4,5-b]pyridin-1-yl)propyl)piperidin-3-ol] registered an IC50 of 100 to 500 nM.
Under `O[C@H]1CCCN[C@@H]1CCCn1cnc2ccc(Cl)nc21` [Example 118, (2R,3S)-2-(3-(5-chloro-3H-imidazo[4,5-b]pyridin-3-yl)propyl)piperidin-3-ol] stands no less than 500 nM; under `O[C@H]1CCCN[C@@H]1CCCn1cnc2nc(Br)ccc21` [Example 119, (2R,3S)-2-(3-(5-bromo-1H-imidazo[4,5-b]pyridin-1-yl)propyl)piperidin-3-ol], no less than 500 nM.
Take `O[C@H]1CCCN[C@@H]1CCCn1cnc2ncc(Br)cc21` [Example 120, (2R,3S)-2-(3-(6-bromo-1H-imidazo[4,5-b]pyridin-1-yl)propyl)piperidin-3-ol]: the IC50 is no less than 500 nM.
`Cc1ccc2c(ncn2CCC[C@H]2NCCC[C@@H]2O)n1` [Example 121, (2R,3S)-2-(3-(5-methyl-1H-imidazo[4,5-b]pyridin-1-yl)propyl)piperidin-3-ol] returned a half-maximal inhibitory concentration (IC50) of 100 to 500 nM.
With `O[C@H]1CCCN[C@@H]1CCCn1cnc2cnc(Cl)cc21` [Example 122, (2R,3S)-2-(3-(6-chloro-1H-imidazo[4,5-c]pyridin-1-yl)propyl)piperidin-3-ol], the IC50 was in the range of 100 to 500 nM.
For `O[C@H]1CCCN[C@@H]1CCCn1cnc2cc(Cl)ncc21` [Example 123, (2R,3S)-2-(3-(6-chloro-3H-imidazo[4,5-c]pyridin-3-yl)propyl)piperidin-3-ol], the half-inhibitory concentration (IC50) was no less than 500 nM.
Regarding `O[C@H]1CCCN[C@@H]1CCCn1cnc2cnc(Br)cc21` [Example 124, (2R,3S)-2-(3-(6-bromo-1H-imidazo[4,5-c]pyridin-1-yl)propyl)piperidin-3-ol], the IC50 was no less than 500 nM.
As to `O[C@H]1CCCN[C@@H]1CCCn1cnc2cc(Br)ncc21` [Example 125, (2R,3S)-2-(3-(6-bromo-3H-imidazo[4,5-c]pyridin-3-yl)propyl)piperidin-3-ol], the IC50 was no less than 500 nM.
Take `O[C@H]1CCCN[C@@H]1CCCn1cnc2nccc(Cl)c21` [Example 126, (2R,3S)-2-(3-(7-chloro-1H-imidazo[4,5-b]pyridin-1-yl)propyl)piperidin-3-ol]: the IC50 was 100 to 500 nM.
As to `O[C@H]1CCCN[C@@H]1CCCn1cnc2nc(Cl)c(Cl)cc21` [Example 127, (2R,3S)-2-(3-(5,6-dichloro-1H-imidazo[4,5-b]pyridin-1-yl)propyl)piperidin-3-ol], the IC50 is 100 to 500 nM.
Then `O[C@H]1CCCN[C@@H]1CCCn1cnc2cncc(Br)c21` [Example 128, (2R,3S)-2-(3-(7-bromo-1H-imidazo[4,5-c]pyridin-1-yl)propyl)piperidin-3-ol], with no less than 500 nM.
`O[C@H]1CCCN[C@@H]1CCCn1cnc2ccc(C(F)(F)F)nc21` [Example 129, (2R,3S)-2-(3-(5-(trifluoromethyl)-3H-imidazo[4,5-b]pyridin-3-yl)propyl)piperidin-3-ol] displayed an IC50 of no less than 500 nM.
Molecule `O[C@H]1CCCN[C@@H]1CCCn1cnc2c(Cl)c(Cl)cnc21` [Example 130, (2R,3S)-2-(3-(6,7-dichloro-3H-imidazo[4,5-b]pyridin-3-yl)propyl)piperidin-3-ol] showed an IC50 of 100 to 500 nM.
Take `Cc1c(Cl)cnc2c1ncn2CCC[C@H]1NCCC[C@@H]1O` [Example 131, (2R,3S)-2-(3-(6-chloro-7-methyl-3H-imidazo[4,5-b]pyridin-3-yl)propyl)piperidin-3-ol]: the half-maximal inhibitory concentration (IC50) fell in the range of 100 to 500 nM.
Regarding `Cc1c(Br)cnc2c1ncn2CCC[C@H]1NCCC[C@@H]1O` [Example 132, (2R,3S)-2-(3-(6-bromo-7-methyl-3H-imidazo[4,5-b]pyridin-3-yl)propyl)piperidin-3-ol], the half-maximal inhibitory concentration (IC50) was in the range of 100 to 500 nM.
The molecule `O[C@H]1CCCN[C@@H]1CCCn1cnc2c(Cl)c(Br)cnc21` [Example 133, (2R,3S)-2-(3-(6-bromo-7-chloro-3H-imidazo[4,5-b]pyridin-3-yl)propyl)piperidin-3-ol] returned an IC50 of no less than 500 nM.
On to `O[C@H]1CCCN[C@@H]1CCCn1cnc2c(Cl)c(-c3cccc(Cl)c3)cnc21` [Example 134, (2R,3S)-2-(3-(7-chloro-6-(3-chlorophenyl)-3H-imidazo[4,5-b]pyridin-3-yl)propyl)piperidin-3-ol], for which the 50% inhibitory concentration (IC50) was no less than 500 nM.
Under `O[C@H]1CCCN[C@@H]1CCCn1cnc2nc(Cl)ncc21` [Example 135, (2R,3S)-2-(3-(2-chloro-7H-purin-7-yl)propyl)piperidin-3-ol] stands no less than 500 nM.
`O[C@H]1CCCN[C@@H]1CCCn1cnc2cnc(Cl)nc21` [Example 136, (2R,3S)-2-(3-(2-chloro-9H-purin-9-yl)propyl)piperidin-3-ol] showed an IC50 of no less than 500 nM.
`CN(C)c1ncnc2c1ncn2CCC[C@H]1NCCC[C@@H]1O` [Example 137, (2R,3S)-2-(3-(6-(dimethylamino)-9H-purin-9-yl)propyl)piperidin-3-ol] had a half-maximal inhibitory concentration (IC50) of no less than 500 nM.
`CCN(CC)c1ncnc2c1ncn2CCC[C@H]1NCCC[C@@H]1O` [Example 138, (2R,3S)-2-(3-(6-(diethylamino)-9H-purin-9-yl)propyl)piperidin-3-ol] came in with a half-inhibitory concentration (IC50) of no less than 500 nM.
Under `CCN(C)c1ncnc2c1ncn2CCC[C@H]1NCCC[C@@H]1O` [Example 139, (2R,3S)-2-(3-(6-(ethyl(methyl)amino)-9H-purin-9-yl)propyl)piperidin-3-ol] stands no less than 500 nM.
`O[C@H]1CCCN[C@@H]1CCCn1cnc2c(N3CCOCC3)ncnc21` [Example 140, (2R,3S)-2-(3-(6-morpholino-9H-purin-9-yl)propyl)piperidin-3-ol] gave an IC50 of no less than 500 nM.
In the case of `O[C@H]1CCCN[C@@H]1CCCn1cnc2c(N3CCCCC3)ncnc21` [Example 141, (2R,3S)-2-(3-(6-(piperidin-1-yl)-9H-purin-9-yl)propyl)piperidin-3-ol], the IC50 was no less than 500 nM.
`O[C@H]1CCCN[C@@H]1CCCn1cnc2c(N3CCCC3)ncnc21` [Example 142, (2R,3S)-2-(3-(6-(pyrrolidin-1-yl)-9H-purin-9-yl)propyl)piperidin-3-ol] registered an IC50 of no less than 500 nM.
In turn, `Oc1nc2ccccc2n1CCC[C@H]1NCCC[C@@H]1O` [Example 143, 1-(3-((2R,3S)-3-hydroxypiperidin-2-yl)propyl)-1H-benzo[d]imidazol-2-ol] gave an IC50 of no less than 500 nM.
`Oc1nc2cc(Cl)c(Cl)cc2n1CCC[C@H]1NCCC[C@@H]1O` [Example 144, 5,6-dichloro-1-(3-((2R,3S)-3-hydroxypiperidin-2-yl)propyl)-1H-benzo[d]imidazol-2-ol] registered a half-inhibitory concentration (IC50) of no less than 500 nM.
Under `OCc1nc2ccccc2n1CCC[C@H]1NCCC[C@@H]1O` [Example 145, (2R,3S)-2-(3-(2-(hydroxymethyl)-1H-benzo[d]imidazol-1-yl)propyl)piperidin-3-ol] stands no less than 500 nM.
Then `Cc1ccc2c(nc(CO)n2CCC[C@H]2NCCC[C@@H]2O)c1C` [Example 146, (2R,3S)-2-(3-(2-(hydroxymethyl)-4,5-dimethyl-1H-benzo[d]imidazol-1-yl)propyl)piperidin-3-ol], with no less than 500 nM.
`OCc1nc2cc(Cl)c(Cl)cc2n1CCC[C@H]1NCCC[C@@H]1O` [Example 147, (2R,3S)-2-(3-(5,6-dichloro-2-(hydroxymethyl)-1H-benzo[d]imidazol-1-yl)propyl)piperidin-3-ol] showed a half-inhibitory concentration (IC50) of no less than 500 nM.
Then `Nc1nc2cc(Cl)c(Cl)cc2n1CCC[C@H]1NCCC[C@@H]1O` [Example 148, (2R,3S)-2-(3-(2-amino-5,6-dichloro-1H-benzo[d]imidazol-1-yl)propyl)piperidin-3-ol], with 100 to 500 nM; and `COC(=O)c1cn(CCC[C@H]2NCCC[C@@H]2O)c2c(Br)cccc12` [Example 149, methyl 7-bromo-1-(3-((2R,3S)-3-hydroxypiperidin-2-yl)propyl)-1H-indole-3-carboxylate], with 100 to 500 nM; and `COC(=O)c1cn(CCC[C@H]2NCCC[C@@H]2O)c2ccc(Br)cc12` [Example 150, methyl 5-bromo-1-(3-((2R,3S)-3-hydroxypiperidin-2-yl)propyl)-1H-indole-3-carboxylate], with no less than 500 nM.
In turn, `COC(=O)c1cn(CCC[C@H]2NCCC[C@@H]2O)c2cc(Br)ccc12` [Example 151, methyl 6-bromo-1-(3-((2R,3S)-3-hydroxypiperidin-2-yl)propyl)-1H-indole-3-carboxylate] had an IC50 of 100 to 500 nM.
The molecule `COC(=O)c1cn(CCC[C@H]2NCCC[C@@H]2O)c2cccc(Cl)c12` [Example 152, methyl 4-chloro-1-(3-((2R,3S)-3-hydroxypiperidin-2-yl)propyl)-1H-indole-3-carboxylate] yielded a half-inhibitory concentration (IC50) of no less than 500 nM.
The molecule `COC(=O)c1cn(CCC[C@H]2NCCC[C@@H]2O)c2cc(Cl)ccc12` [Example 153, methyl 6-chloro-1-(3-((2R,3S)-3-hydroxypiperidin-2-yl)propyl)-1H-indole-3-carboxylate] came in with a half-inhibitory concentration (IC50) of 100 to 500 nM.
In turn, `COC(=O)c1cn(CCC[C@H]2NCCC[C@@H]2O)c2c(Cl)cccc12` [Example 154, methyl 7-chloro-1-(3-((2R,3S)-3-hydroxypiperidin-2-yl)propyl)-1H-indole-3-carboxylate] registered a 50% inhibitory concentration (IC50) of 100 to 500 nM.
Molecule `O[C@H]1CCCN[C@@H]1CCCn1nc(C2CC2)c2cc(Cl)ccc21` [Example 155, (2R,3S)-2-(3-(5-chloro-3-cyclopropyl-1H-indazol-1-yl)propyl)piperidin-3-ol] gave an IC50 of no less than 500 nM.
Then `O[C@H]1CCCN[C@@H]1CCCn1nc(C(F)(F)F)c2cc(Cl)ccc21` [Example 156, (2R,3S)-2-(3-(5-chloro-3-(trifluoromethyl)-1H-indazol-1-yl)propyl)piperidin-3-ol], with no less than 500 nM; and `O[C@H]1CCCN[C@@H]1CCCn1nc(-c2cnn(C(F)F)c2)c2cc(Cl)ccc21` [Example 157, (2R,3S)-2-(3-(5-chloro-3-(1-(difluoromethyl)-1H-pyrazol-4-yl)-1H-indazol-1-yl)propyl)piperidin-3-ol], with no less than 500 nM.
